# “Also recorded” adds a separate entry of the source.
# Experiments:
# His-FGF2/GST-NΔ173 Tec = target: T1, His-FGF2/GST-NΔ173 Tec (Homo sapiens, UniProt P42680); test: Alpha protein-protein interaction assay, FGF2 binding to Tec kinase; conditions: dose-response, ± SEM, four independent experiments
# T1 construct: made in house; host or cells: Tec: SF9 insect cells (baculovirus); FGF2: E. coli
# Method: Alpha® protein-protein interaction assays with His-tagged FGF2 (125 nM) and GST-NΔ173 Tec (31.25 nM) (blue spheres) as well as His-tagged MBP-CARP (20 nM) and GST-titin (20 nM) (red squares) were conducted as described in the legend of FIG. 3 and in Experimental Procedures. Additionally, as a technical control, a single fusion protein containing both a GST- and a His-tag was used (20 nM; black triangles). Dose response curves were recorded with the three active compounds (#6, #14 and #21) as well as the two control compounds (#18 and #19) (FIG. 4). For each compound four independent experiments (each of which was conducted in three technical replicates) were performed. Data points were fitted using the non-linear regression function log (inhibitor) vs. response—variable slope (four parameters). Data were evaluated using GraphPad Prism (v5 for Mac OS X). Standard deviations are shown.
# A Protein-Protein Interaction Assay Designed to Screen Small Molecule Libraries for Compounds Inhibiting FGF2 Binding to Tec Kinase (Alphascreen® Assay)
# To quantify the interaction of FGF2 with Tec kinase under screening conditions, an assay was established based upon Alpha® technology. Briefly, this methodology is based on a pair of proteins of interest that bind to Alpha® donor and acceptor beads, respectively. Upon excitation of donor beads at 680 nm, singlet oxygen species are produced that can diffuse within a range of 200 nm. […] This in turn causes emission of light with a wave length of 520 nm that is detected as the Alpha® signal.
# The optimal concentrations of His-tagged FGF2 and GST-tagged NΔ173 Tec in the Alphascreen were determinate in a cross-titration experiment (not shown) to be 31.25 nM and 62.5 nM, respectively. […] All Alpha® assays were carried out in white low volume 384-well plates (#6008280, ProxiPlate™) and read in an EnVision plate reader (Perkin Elmer). […]
# AlphaScreen experiments were performed as described above. […] Following 60 min of incubation, Alpha® signals were recorded using an EnVision™ plate reader (PerkinElmer). […]
# [1] = Observation of compound aggregates in cell culture media; assay type: physicochemical; conditions: 25 and 50 μM
# T1 sequence (P42680 174-631 limits assumed, stated change not applied): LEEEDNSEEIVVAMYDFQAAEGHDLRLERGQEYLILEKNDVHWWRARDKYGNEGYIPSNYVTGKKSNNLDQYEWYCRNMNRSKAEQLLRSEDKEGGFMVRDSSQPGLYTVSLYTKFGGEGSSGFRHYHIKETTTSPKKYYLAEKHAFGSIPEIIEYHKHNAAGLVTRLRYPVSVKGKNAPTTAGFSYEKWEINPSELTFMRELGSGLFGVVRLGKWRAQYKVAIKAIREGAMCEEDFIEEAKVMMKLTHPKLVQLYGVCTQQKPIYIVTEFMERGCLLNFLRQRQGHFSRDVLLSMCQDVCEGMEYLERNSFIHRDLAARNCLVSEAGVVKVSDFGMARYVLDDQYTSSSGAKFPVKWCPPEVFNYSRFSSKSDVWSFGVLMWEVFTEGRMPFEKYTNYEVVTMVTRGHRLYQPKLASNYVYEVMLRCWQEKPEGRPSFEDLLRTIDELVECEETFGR
Compound,IC50 (His-FGF2/GST-NΔ173 Tec) [µM],solubility / aggregates of compound [1]
COC(=O)c1c(C)[nH]c(C(=O)OCc2cc(=O)n3c(C)cccc3n2)c1C [compound #6],8.9,–
CC(=O)c1c(C)[nH]c(C(=O)CSc2nc3cc(Cl)cnc3[nH]2)c1C [compound #21],11.7,aggregates of compound #21 were increasingly observable at concentrations of 25 and 50 μM; also recorded: solubility issues
CC(=O)c1c(C)[nH]c(C(=O)OCc2cc(=O)n3cc(Br)ccc3n2)c1C [compound #14],7,–
